Counter-ions that a name gives are not always drawn.
Tests used:
[1] = target: T1, human TYK2 kinase domain (JH1) (Homo sapiens, UniProt P29597); test: JH1 biochemical assay for TYK2 (ADP-Glo kinase assay, recombinant JH1 catalytic domain, JAK3-974 peptide, 10 μM ATP)
T1 construct: recombinantly generated catalytic kinase (also known as JH1) domain of human JAK1, JAK2, JAK3 and TYK2
T1 sequence (P29597 897-1176 limits assumed): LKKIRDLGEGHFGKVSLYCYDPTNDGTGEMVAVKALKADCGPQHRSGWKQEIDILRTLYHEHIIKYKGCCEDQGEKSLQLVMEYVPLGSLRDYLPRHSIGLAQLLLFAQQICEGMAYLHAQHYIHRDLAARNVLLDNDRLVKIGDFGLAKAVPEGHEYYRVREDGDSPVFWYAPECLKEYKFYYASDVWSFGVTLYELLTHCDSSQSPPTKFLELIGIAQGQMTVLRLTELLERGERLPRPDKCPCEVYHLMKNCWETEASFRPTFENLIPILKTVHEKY
How it was run: (§1)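 Enzyme levels: JAK1 4 nM, JAK2 0.2 nM, JAK3 0.3 nM, TYK2 2 nM. Peptide substrate at 50 μM. Reactions ran 100 minutes; ADP formed was converted to luciferase luminescence after ATP depletion. Compounds tested from 10 μM or 1 μM top, 11-point 3-fold dilutions; IC50 from 4-parameter logistic fit of normalized percent activity.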

[2] = target: T2, human JAK3 kinase domain (JH1) (Homo sapiens, UniProt P52333); test: JH1 biochemical assay for JAK3 (ADP-Glo kinase assay, recombinant JH1 catalytic domain, JAK3-974 peptide, 4 μM ATP)
T2 construct: recombinantly generated catalytic kinase (also known as JH1) domain of human JAK1, JAK2, JAK3 and TYK2
T2 sequence (P52333 822-1111 limits assumed): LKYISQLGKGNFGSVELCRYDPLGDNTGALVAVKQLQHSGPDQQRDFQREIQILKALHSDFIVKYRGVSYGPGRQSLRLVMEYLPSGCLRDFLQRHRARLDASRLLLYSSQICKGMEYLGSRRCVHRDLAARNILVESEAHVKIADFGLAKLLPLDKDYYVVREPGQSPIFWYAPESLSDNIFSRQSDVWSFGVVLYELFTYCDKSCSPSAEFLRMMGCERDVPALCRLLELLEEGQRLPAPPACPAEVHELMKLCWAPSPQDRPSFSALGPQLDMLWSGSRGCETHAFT
How it was run: as §1

[3] = target: T3, human JAK2 kinase domain (JH1) (Homo sapiens, UniProt O60674); test: JH1 biochemical assay for JAK2 (ADP-Glo kinase assay, recombinant JH1 catalytic domain, JAK3-974 peptide, 15 μM ATP)
T3 construct: recombinantly generated catalytic kinase (also known as JH1) domain of human JAK1, JAK2, JAK3 and TYK2
T3 sequence (O60674 849-1124 limits assumed): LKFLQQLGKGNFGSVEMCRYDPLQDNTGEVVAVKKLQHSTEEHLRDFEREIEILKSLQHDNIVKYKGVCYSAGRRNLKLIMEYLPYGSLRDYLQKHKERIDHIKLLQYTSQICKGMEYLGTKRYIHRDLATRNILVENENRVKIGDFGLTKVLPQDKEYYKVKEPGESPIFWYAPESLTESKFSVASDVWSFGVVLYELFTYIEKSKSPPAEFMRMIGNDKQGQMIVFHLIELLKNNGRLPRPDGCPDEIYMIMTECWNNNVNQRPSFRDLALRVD
How it was run: as §1

[4] = target: T4, human JAK1 kinase domain (JH1) (Homo sapiens, UniProt P23458); test: JH1 biochemical assay for JAK1 (ADP-Glo kinase assay, recombinant JH1 catalytic domain, JAK3-342 peptide, 35 μM ATP)
T4 construct: recombinantly generated catalytic kinase (also known as JH1) domain of human JAK1, JAK2, JAK3 and TYK2
T4 sequence (P23458 875-1153 limits assumed): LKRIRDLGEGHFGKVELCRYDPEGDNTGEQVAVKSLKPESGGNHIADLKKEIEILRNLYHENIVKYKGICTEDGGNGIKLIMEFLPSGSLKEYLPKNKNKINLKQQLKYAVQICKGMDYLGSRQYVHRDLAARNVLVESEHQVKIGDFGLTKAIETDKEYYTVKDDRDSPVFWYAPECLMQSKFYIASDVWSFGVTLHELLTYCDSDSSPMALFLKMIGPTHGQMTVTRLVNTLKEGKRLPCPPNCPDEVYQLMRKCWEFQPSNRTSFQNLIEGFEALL
How it was run: as §1

| SMILES | IC50 ([1]; JH1 kinase domain, ADP-Glo) | IC50 ([2]; JH1 kinase domain, ADP-Glo) | IC50 ([3]; JH1 kinase domain, ADP-Glo) | IC50 ([4]; JH1 kinase domain, ADP-Glo) | IC50 ([1]; TYK2 JH1, ADP-Glo) | IC50 ([2]; JAK3 JH1, ADP-Glo) | IC50 ([3]; JAK2 JH1, ADP-Glo) | IC50 ([4]; JAK1 JH1, ADP-Glo) |
| --- | --- | --- | --- | --- | --- | --- | --- | --- |
| CC[C@@H]1C[C@@](C#N)(C2CC2)C(=O)N1c1ccnn2cc(-c3cnn(C)c3)cc12 [Example 18, (3S,5R)-3-cyclopropyl-5-ethyl-1-(6-(1-methyl-1H-pyrazol-4-yl)pyrrolo[1,2-b]pyridazin-4-yl)-2-oxopyrrolidine-3-carbonitrile] | > 100 nM | 1000 to 5000 nM | 100 to 1000 nM | 1000 to 5000 nM |  |  |  |  |
| CC[C@H]1C[C@@](C#N)(C2CC2)C(=O)N1c1ccnn2cc(C3=NC(C)N=C3)cc12 (stereo partly drawn) [Example 19, (3S,5S)-3-cyclopropyl-5-ethyl-1-(6-(2-methyl-2H-imidazol-4-yl)pyrrolo[1,2-b]pyridazin-4-yl)-2-oxopyrrolidine-3-carbonitrile] | > 100 nM | > 10000 nM | > 10000 nM | > 10000 nM |  |  |  |  |
| COc1cncc(-c2cn3ncc(F)c3c(N3C[C@@H](C)[C@@](C#N)(C4CC4)C3=O)n2)c1 [Example 223, (3R,4S)-3-cyclopropyl-1-(3-fluoro-6-(5-methoxypyridin-3-yl)pyrazolo[1,5-a]pyrazin-4-yl)-4-methyl-2-oxopyrrolidine-3-carbonitrile] |  |  |  |  | 50 to 100 nM | 1000 to 5000 nM | 1000 to 5000 nM | 1000 to 5000 nM |
| Cn1cc(-c2cc3c(N4CC[C@](C#N)(C5CC5)C4=O)ccnc3[nH]2)cn1 [Example 2, (R)-3-cyclopropyl-1-(2-(1-methyl-1H-pyrazol-4-yl)-1H-pyrrolo[2,3-b]pyridin-4-yl)-2-oxopyrrolidine-3-carbonitrile] | 50 to 100 nM | 1000 to 5000 nM | 100 to 1000 nM | 100 to 1000 nM |  |  |  |  |
| Cn1cc(-c2cc3c(N4CC[C@@](C#N)(C5CCC5)C4=O)ccnn3c2)cn1 (single isomer, unassigned) [Example 46] | > 100 nM | 100 to 1000 nM | 1000 to 5000 nM | 5000 to 10000 nM |  |  |  |  |
| C[C@@H]1CN(c2nc(-c3cncc(C(F)(F)F)c3)cn3nccc23)C(=O)[C@]1(C#N)C1CC1 [Example 260, (3R,4S)-3-cyclopropyl-4-methyl-2-oxo-1-(6-(5-(trifluoromethyl)pyridin-3-yl)pyrazolo[1,5-a]pyrazin-4-yl)pyrrolidine-3-carbonitrile trifluoroacetate] |  |  |  |  | 50 to 100 nM | 1000 to 5000 nM | 1000 to 5000 nM | 100 to 1000 nM |
| C[C@@H]1CN(c2nc(-c3cccc4cnn(C)c34)cn3nccc23)C(=O)[C@]1(C#N)C1CC1 [Example 242, (3R,4S)-3-cyclopropyl-4-methyl-1-(6-(1-methyl-1H-indazol-7-yl)pyrazolo[1,5-a]pyrazin-4-yl)-2-oxopyrrolidine-3-carbonitrile] |  |  |  |  | > 100 nM | > 10000 nM | > 10000 nM | > 10000 nM |
| C[C@@H]1CN(c2ccnn3cc(-c4cccc5cnn(C)c45)cc23)C(=O)[C@]1(C#N)C1CC1 [Example 78, (3R,4S)-3-cyclopropyl-4-methyl-1-(6-(1-methyl-1H-indazol-7-yl)pyrrolo[1,2-b]pyridazin-4-yl)-2-oxopyrrolidine-3-carbonitrile] | > 100 nM | > 10000 nM | > 10000 nM | > 10000 nM |  |  |  |  |
| CC(O)c1ccc(-c2cc3c(N4C[C@@H](C)[C@@](C#N)(C5CC5)C4=O)ccnn3c2)nc1 (stereo partly drawn) [Example 130, (3R,4S)-3-cyclopropyl-1-(6-(5-(1-hydroxyethyl)pyridin-2-yl)pyrrolo[1,2-b]pyridazin-4-yl)-4-methyl-2-oxopyrrolidine-3-carbonitrile trifluoroacetate] | 5 to 20 nM | 100 to 1000 nM | 100 to 1000 nM | 100 to 1000 nM |  |  |  |  |
| C[C@@H]1CN(c2n[nH]c3ncc(-c4cnn(C)c4)cc23)C(=O)[C@]1(C#N)C1CC1 [Example 274, (3R,4S)-3-cyclopropyl-4-methyl-1-(5-(1-methyl-1H-pyrazol-4-yl)-1H-pyrazolo[3,4-b]pyridin-3-yl)-2-oxopyrrolidine-3-carbonitrile] |  |  |  |  | > 100 nM | > 10000 nM | 100 to 1000 nM | > 10000 nM |
| C[C@@H]1CN(c2ccnn3cc(-c4nccn5ccnc45)cc23)C(=O)[C@]1(C#N)C1CC1 [Example 123, (3R,4S)-3-cyclopropyl-1-(6-(imidazo[1,2-a]pyrazin-8-yl)pyrrolo[1,2-b]pyridazin-4-yl)-4-methyl-2-oxopyrrolidine-3-carbonitrile trifluoroacetate] | > 100 nM | > 10000 nM | > 10000 nM | > 10000 nM |  |  |  |  |

Second part, the molecule after the results:

| IC50 ([1]; JH1 kinase domain, ADP-Glo) | IC50 ([2]; JH1 kinase domain, ADP-Glo) | IC50 ([3]; JH1 kinase domain, ADP-Glo) | IC50 ([4]; JH1 kinase domain, ADP-Glo) | IC50 ([1]; TYK2 JH1, ADP-Glo) | IC50 ([2]; JAK3 JH1, ADP-Glo) | IC50 ([3]; JAK2 JH1, ADP-Glo) | IC50 ([4]; JAK1 JH1, ADP-Glo) | SMILES |
| --- | --- | --- | --- | --- | --- | --- | --- | --- |
| 50 to 100 nM | 1000 to 5000 nM | 1000 to 5000 nM | 1000 to 5000 nM |  |  |  |  | Cn1cc(-c2cc3c(N4CC[C@@](C)(C#N)C4=O)ccnn3c2)cn1 (single isomer, unassigned) [Example 38] |
|  |  |  |  | 50 to 100 nM | 1000 to 5000 nM | 1000 to 5000 nM | 100 to 1000 nM | Cc1cc(-c2cn3nccc3c(N3C[C@@H](C)[C@@](C#N)(C4CC4)C3=O)n2)ccn1 [Example 241, (3R,4S)-3-cyclopropyl-4-methyl-1-(6-(2-methylpyridin-4-yl)pyrazolo[1,5-a]pyrazin-4-yl)-2-oxopyrrolidine-3-carbonitrile trifluoroacetate] |
| > 100 nM | > 10000 nM | > 10000 nM | 5000 to 10000 nM |  |  |  |  | COc1ccnc(-c2cc3c(N4C[C@@H](C)[C@@](C#N)(C5CC5)C4=O)ccnn3c2)n1 [Example 122, (3R,4S)-3-cyclopropyl-1-(6-(4-methoxypyrimidin-2-yl)pyrrolo[1,2-b]pyridazin-4-yl)-4-methyl-2-oxopyrrolidine-3-carbonitrile trifluoroacetate] |
|  |  |  |  | > 100 nM | > 10000 nM | 1000 to 5000 nM | > 10000 nM | C[C@@H]1CN(c2ncnc3cc(-c4cnn(C)c4)sc23)C(=O)[C@]1(C#N)C1CC1 [Example 286, (3R,4S)-3-cyclopropyl-4-methyl-1-(6-(1-methyl-1H-pyrazol-4-yl)thieno[3,2-d]pyrimidin-4-yl)-2-oxopyrrolidine-3-carbonitrile] |
| 20 to 50 nM | 100 to 1000 nM | 1000 to 5000 nM | 1000 to 5000 nM |  |  |  |  | Cc1nc(-c2cc3c(N4C[C@@H](C)[C@@](C#N)(C5CC5)C4=O)ccnn3c2)ccc1C#N [Example 119, 6-(4-((3R,4S)-3-cyano-3-cyclopropyl-4-methyl-2-oxopyrrolidin-1-yl)pyrrolo[1,2-b]pyridazin-6-yl)-2-methylnicotinonitrile trifluoroacetate] |
| 20 to 50 nM | 100 to 1000 nM | 1000 to 5000 nM | 100 to 1000 nM |  |  |  |  | C[C@@H]1CN(c2ccnn3cc(-c4cnc5cnccn45)cc23)C(=O)[C@]1(C#N)C1CC1 [Example 116, (3R,4S)-3-cyclopropyl-1-(6-(imidazo[1,2-a]pyrazin-3-yl)pyrrolo[1,2-b]pyridazin-4-yl)-4-methyl-2-oxopyrrolidine-3-carbonitrile trifluoroacetate] |
| 20 to 50 nM | 100 to 1000 nM | 100 to 1000 nM | 100 to 1000 nM |  |  |  |  | C[C@@H]1CN(c2ccnn3cc(-c4cccc(CC#N)n4)cc23)C(=O)[C@]1(C#N)C1CC1 [Example 125, (3R,4S)-1-(6-(6-(cyanomethyl)pyridin-2-yl)pyrrolo[1,2-b]pyridazin-4-yl)-3-cyclopropyl-4-methyl-2-oxopyrrolidine-3-carbonitrile trifluoroacetate] |
| > 100 nM | > 10000 nM | > 10000 nM | 5000 to 10000 nM |  |  |  |  | CCc1ccncc1-c1cc2c(N3C[C@@H](C)[C@@](C#N)(C4CC4)C3=O)ccnn2c1 [Example 175, (3R,4S)-3-cyclopropyl-1-(6-(4-ethylpyridin-3-yl)pyrrolo[1,2-b]pyridazin-4-yl)-4-methyl-2-oxopyrrolidine-3-carbonitrile trifluoroacetate] |
| > 100 nM | 5000 to 10000 nM | 1000 to 5000 nM | > 10000 nM |  |  |  |  | C[C@@H]1CN(c2ccnn3cc(-c4nnc5n4CCCC5)cc23)C(=O)[C@]1(C#N)C1CC1 [Example 105, (3R,4S)-3-cyclopropyl-4-methyl-2-oxo-1-(6-(5,6,7,8-tetrahydro-[1,2,4]triazolo[4,3-a]pyridin-3-yl)pyrrolo[1,2-b]pyridazin-4-yl)pyrrolidine-3-carbonitrile trifluoroacetate] |
| 50 to 100 nM | 1000 to 5000 nM | 5000 to 10000 nM | 1000 to 5000 nM |  |  |  |  | C[C@@H]1CN(c2ccnn3cc(-c4cncnc4)cc23)C(=O)[C@]1(C#N)C1CC1 [Example 92, (3R,4S)-3-cyclopropyl-4-methyl-2-oxo-1-(6-(pyrimidin-5-yl)pyrrolo[1,2-b]pyridazin-4-yl)pyrrolidine-3-carbonitrile] |
| 20 to 50 nM | 1000 to 5000 nM | 1000 to 5000 nM | 1000 to 5000 nM |  |  |  |  | C[C@@H]1CN(c2ccnn3cc(-c4ncc(C#N)s4)cc23)C(=O)[C@]1(C#N)C1CC1 [Example 117, 2-(4-((3R,4S)-3-cyano-3-cyclopropyl-4-methyl-2-oxopyrrolidin-1-yl)pyrrolo[1,2-b]pyridazin-6-yl)thiazole-5-carbonitrile trifluoroacetate] |
| > 100 nM | > 10000 nM | 5000 to 10000 nM | > 10000 nM |  |  |  |  | Cn1cc(-c2cc3c(N4CC[C@](C#N)(C5CC5)C4=O)ccnn3c2)cn1 [Example 14, (R)-3-cyclopropyl-1-(6-(1-methyl-1H-pyrazol-4-yl)pyrrolo[1,2-b]pyridazin-4-yl)-2-oxopyrrolidine-3-carbonitrile] |

— patent US20260297085A1, “1 H-PYRROLO[2,3-B]PYRIDIN-4-YL]-2-OXOPYRROLIDINE-3-CARBONITRILE DERIVATIVES AS TYROSINE KINASE 2 (TYK2) INHIBITORS FOR THE TREATMENT OF INFLAMMATORY DISEASES” (BIOGEN MA INC., priority 2023, published 2026)
